Kd, IC50 and EC50 data for 23 compounds are collected here from patent US8618289B2 (Ambit Biosciences Corporation, priority 2008, dated 2013).

The structures appear in SMILES notation. Counter-ions that a name gives are not always drawn.

For test [1], the target named is RAF kinases (Homo sapiens, UniProt P15056, V600E). The conditions noted are these: read-out: BRAF V600E Kd; BRAF V600E.
Protocol: (§1) Competition binding assays used herein were developed, validated and performed as described in Fabian et al., Nature Biotechnology 2005, 23, 329-336. […] The liganded beads were blocked with excess biotin and washed with blocking buffer (SeaBlock (Pierce), 1% BSA, 0.05% Tween 20, 1 mM DTT) to remove unbound ligand and to reduce non-specific binding. […] Test compounds were prepared as 100× stocks in DMSO and rapidly diluted into the aqueous environment. DMSO was added to control assays lacking a test compound. Primary screen interactions were performed in polypropylene 384-well plates in a final volume of 34 μt, while Kd determinations were performed in polystyrene 96-well plates in a final volume of 135 pt. […] The kinase concentration in the eluates was measured by quantitative PCR. Each kinase was tested individually against each compound. Kds were determined using eleven serial threefold dilutions. A selectivity score, which is a quantitative measure of selectivity of a compound against a panel of enzymes, may be calculated for a compound by dividing the number of enzymes for which a compound meets a set criteria, (for example, a binding constant of 100 nM or less), by the total number of enzymes tested. […] (Note, for those compounds tested in a larger kinase panel, as indicated by an asterisk (*) next to the S35 score, the divisor is 321 (i.e. the larger panel contains 321 distinct kinases, excluding mutant variants.)).
The test system of test [2] is MEK1 phosphorylation in the A375 human melanoma cell line. The experiment in a line: cells. The conditions noted are these: A-375, read-out: pMEK IC50.
In test [3] the target is RAF kinases (Homo sapiens, UniProt P04049). The experiment in a line: biochemical.
Protocol: as §1
The target in test [4] is RAF kinases (Homo sapiens, UniProt P15056). The test is described as follows: biochemical.
Protocol: as §1
For a further test, the system named is A375 cells. The experiment in a line: cells. The conditions noted are these: Homo sapiens, A-375, read-out: A375 Viability EC50.

What is called Kd is the concentration at which binding is half-saturated. As a reminder, the IC50 is the concentration that inhibits the measured activity by half. Broadly, the EC50 is the concentration needed to bring the measured effect to its halfway point.

Sequence of RAF kinases (Homo sapiens, UniProt P04049) (P04049 whole entry): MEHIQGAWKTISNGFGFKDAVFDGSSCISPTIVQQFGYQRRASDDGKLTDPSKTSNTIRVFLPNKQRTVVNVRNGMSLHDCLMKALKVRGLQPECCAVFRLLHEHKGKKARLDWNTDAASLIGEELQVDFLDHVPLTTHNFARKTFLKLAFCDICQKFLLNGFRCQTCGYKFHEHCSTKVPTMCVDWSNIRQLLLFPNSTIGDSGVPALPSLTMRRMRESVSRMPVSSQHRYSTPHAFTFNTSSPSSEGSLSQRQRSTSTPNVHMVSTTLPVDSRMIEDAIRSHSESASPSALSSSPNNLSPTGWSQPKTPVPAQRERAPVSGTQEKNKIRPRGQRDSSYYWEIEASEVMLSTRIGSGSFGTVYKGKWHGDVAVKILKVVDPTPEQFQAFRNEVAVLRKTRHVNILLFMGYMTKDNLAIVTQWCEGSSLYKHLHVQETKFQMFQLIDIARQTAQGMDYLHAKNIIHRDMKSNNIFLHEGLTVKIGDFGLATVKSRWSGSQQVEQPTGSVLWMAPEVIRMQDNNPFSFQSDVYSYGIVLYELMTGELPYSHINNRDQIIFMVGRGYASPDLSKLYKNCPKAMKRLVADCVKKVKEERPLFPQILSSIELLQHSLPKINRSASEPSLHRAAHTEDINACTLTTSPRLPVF
Sequence of RAF kinases (Homo sapiens, UniProt P15056, V600E) (P15056 whole entry V600E): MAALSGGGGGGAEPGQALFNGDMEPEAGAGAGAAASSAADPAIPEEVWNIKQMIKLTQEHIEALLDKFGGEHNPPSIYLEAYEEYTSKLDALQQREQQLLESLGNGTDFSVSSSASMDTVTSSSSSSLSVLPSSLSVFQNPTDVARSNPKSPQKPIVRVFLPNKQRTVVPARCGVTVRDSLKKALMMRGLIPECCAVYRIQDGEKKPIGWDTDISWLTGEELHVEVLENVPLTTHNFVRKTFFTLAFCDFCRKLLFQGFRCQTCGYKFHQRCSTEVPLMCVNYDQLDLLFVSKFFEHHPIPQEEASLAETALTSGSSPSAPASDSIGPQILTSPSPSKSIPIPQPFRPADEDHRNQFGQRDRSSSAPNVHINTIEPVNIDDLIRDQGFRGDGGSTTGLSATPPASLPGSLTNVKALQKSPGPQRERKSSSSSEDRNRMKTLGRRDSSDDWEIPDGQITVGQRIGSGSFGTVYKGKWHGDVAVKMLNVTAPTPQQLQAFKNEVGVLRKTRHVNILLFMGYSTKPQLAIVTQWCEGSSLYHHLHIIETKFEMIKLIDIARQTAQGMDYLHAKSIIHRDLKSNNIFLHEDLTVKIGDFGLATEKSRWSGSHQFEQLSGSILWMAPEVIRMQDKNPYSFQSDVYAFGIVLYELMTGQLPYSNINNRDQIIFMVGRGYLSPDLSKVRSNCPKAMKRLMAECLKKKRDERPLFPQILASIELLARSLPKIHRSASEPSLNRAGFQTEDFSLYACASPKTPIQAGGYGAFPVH
Sequence of RAF kinases (Homo sapiens, UniProt P15056) (P15056 whole entry): as the sequence (P15056 whole entry V600E) above, with E600V counted along it

In the case of `COc1cc2ncnc(Oc3cccc(NC(=O)Nc4cc(C(C)(C)C)nn4-c4ccccc4F)c3)c2cc1OC` [Ex 372, 1-(3-tert-butyl-1-(2-fluorophenyl)-1H-pyrazol-5-yl)-3-(3-(6,7-dimethoxyquinazolin-4-yloxy)phenyl)urea], the Kd on RAF kinases [1] was less than 0.25 µM; at RAF kinases [3] it was 0.5 to 1 µM; on RAF kinases [4], 0.5 to 1 µM. The IC50 in test [2] is less than 0.25 µM.

As to `COCCOc1cc2ncnc(Oc3cccc(NC(=O)Nc4cc(C5CCCC5)no4)c3)c2cc1OC` [Ex 207, 1-(3-cyclopentylisoxazol-5-yl)-3-(3-(6-methoxy-7-(2-methoxyethoxy)quinazolin-4-yloxy)phenyl)urea], the Kd on RAF kinases [1] was less than 0.25 µM; on RAF kinases [3], 0.25 to 0.5 µM; on RAF kinases [4], 0.5 to 1 µM. For the same compound, in test [2], the IC50 was greater than 1 µM. The EC50 in the test on A375 cells is greater than 1 µM.

Turning to `CCOc1cc2c(Oc3cccc(NC(=O)Nc4cc(C(C)(C)C)nn4-c4ccccc4)c3)ncnc2cc1OC` [Ex 390, 1-(3-tert-butyl-1-phenyl-1H-pyrazol-5-yl)-3-(3-(6-ethoxy-7-methoxyquinazolin-4-yloxy)phenyl)urea], the results for the Kd at RAF kinases [1], on RAF kinases [3] and at RAF kinases [4] were less than 0.25 µM, 0.5 to 1 µM and 0.25 to 0.5 µM, respectively. For the same compound, the IC50 in test [2] is less than 0.25 µM.

Turning to `CCOc1cc2ncnc(Oc3cccc(NC(=O)Nc4cc(C(C)(C)C)nn4-c4ccccc4)c3)c2cc1OC` [Ex 387, 1-(3-tert-butyl-1-phenyl-1H-pyrazol-5-yl)-3-(3-(7-ethoxy-6-methoxyquinazolin-4-yloxy)phenyl)urea], the Kd is less than 0.25 µM on RAF kinases [1], 0.5 to 1 µM at RAF kinases [3] and 0.5 to 1 µM on RAF kinases [4]. Further, the IC50 in test [2] is less than 0.25 µM.

In the case of `COc1cc2c(Oc3cccc(NC(=O)Nc4cc(C(C)(C)C)on4)c3)ncnc2cc1O` [Ex 95, 1-(5-tert-butylisoxazol-3-yl)-3-(3-(7-hydroxy-6-methoxyquinazolin-4-yloxy)phenyl)urea], the IC50 in test [2] is less than 0.25 µM. Moreover, the Kd is 0.25 to 0.5 µM on RAF kinases [3] and 0.5 to 1 µM on RAF kinases [4]. Moreover, in the test with A375 cells, the EC50 was less than 0.25 µM.

Consider `COc1cc2ncnc(Sc3cccc(NC(=O)Nc4cc(C(C)(C)C)on4)c3)c2cc1OCCN1CCN(S(C)(=O)=O)CC1` [Ex 69, 1-(5-tert-butylisoxazol-3-yl)-3-(3-(7-methoxy-6-(2-(4-(methylsulfonyl)piperazin-1-yl)ethoxy)quinazolin-4-ylthio)phenyl)urea], for which, in test [2], the IC50 is less than 0.25 µM. Also, the Kd at RAF kinases [3] and on RAF kinases [4] was 0.25 to 0.5 µM throughout. Besides, the EC50 with A375 cells lay in the range of 0.25 to 0.5 µM.

As to `COc1cc2c(Oc3cccc(NC(=O)Nc4cc(C(C)(C)C)on4)c3)ncnc2cc1OCCCN1CC[C@@H](O)C1` [Ex 34, (R)-1-(5-tert-Butylisoxazol-3-yl)-3-(3-(7-(3-(3-hydroxypyrrolidin-1-yl)propoxy)-6-methoxyquinazolin-4-yloxy)phenyl)urea], in test [2], the IC50 was less than 0.25 µM. Besides, the Kd on RAF kinases [3] and at RAF kinases [4] was 0.25 to 0.5 µM throughout. In addition, in the test with A375 cells, the EC50 was greater than 1 µM.

Regarding `COCCOc1cc2ncnc(Oc3cccc(NC(=O)Nc4cccc(C(C)(C)C)c4)c3)c2cc1OC` [Ex 119, 1-(3-tert-butylphenyl)-3-(3-(6-methoxy-7-(2-methoxyethoxy)quinazolin-4-yloxy)phenyl)urea], the IC50 in test [2] lay within 0.25 to 0.5 µM. In addition, the Kd at RAF kinases [3] and at RAF kinases [4] was 0.25 to 0.5 µM in each case. The EC50 in the test with A375 cells is greater than 1 µM.

Take `COc1cc2ncnc(Sc3cccc(NC(=O)Nc4cc(C(C)(C)C)on4)c3)c2cc1OCCN1CCC(CO)CC1` [Ex 66, 1-(5-tert-butylisoxazol-3-yl)-3-(3-(6-(2-(4-(hydroxymethyl)piperidin-1-yl)ethoxy)-7-methoxyquinazolin-4-ylthio)phenyl)urea]: in test [2], the IC50 was less than 0.25 µM. Further, the Kd on RAF kinases [3] and at RAF kinases [4] was 0.5 to 1 µM in each case. The EC50 in the test on A375 cells is greater than 1 µM.

For `CC(C)(C)c1cc(NC(=O)Nc2cccc(Oc3ncnc4ccc(-c5ccc(CNCCS(C)(=O)=O)o5)cc34)c2)no1` [Ex 92, 1-(5-tert-butylisoxazol-3-yl)-3-{3-[6-(5-{[2-(methylsulfonyl)ethylamino]methyl}furan-2-yl)quinazolin-4-yloxy]phenyl}urea], the IC50 in test [2] is less than 0.25 µM. For the same compound, the Kd at RAF kinases [3] was in the range of 0.25 to 0.5 µM; on RAF kinases [4], 0.5 to 1 µM. In the test on A375 cells, the EC50 was less than 0.25 µM.

For `COc1cc2c(Oc3cccc(NC(=O)Nc4cc(C(C)(C)C)on4)c3)ncnc2cc1OCCCN1CCOCC1` [Ex 27, 1-(5-tert-butylisoxazol-3-yl)-3-(3-(6-methoxy-7-(3-morpholinopropoxy)quinazolin-4-yloxy)phenyl)urea], in test [2], the IC50 was less than 0.25 µM. The Kd at RAF kinases [3] and on RAF kinases [4] was 0.25 to 0.5 µM each time. Also, in the test on A375 cells, the EC50 is less than 0.25 µM.

Consider `COc1cc2c(Oc3cccc(NC(=O)Nc4cc(C(C)(C)C)on4)c3)ncnc2cc1OCCCN1CCN(S(C)(=O)=O)CC1` [Ex 32, 1-(5-tert-butylisoxazol-3-yl)-3-(3-(6-methoxy-7-(3-(4-(methylsulfonyl)piperazin-1-yl)propoxy)quinazolin-4-yloxy)phenyl)urea], for which, in test [2], the IC50 was less than 0.25 µM. For the same compound, the values for the Kd at RAF kinases [3] and at RAF kinases [4] were 0.25 to 0.5 µM and 0.5 to 1 µM, respectively. Further, the EC50 in the test on A375 cells is 0.25 to 0.5 µM.

Turning to `COc1cc2c(Oc3cccc(NC(=O)Nc4cc(C(C)(C)C)on4)c3)ncnc2cc1OCCN1CCC(CO)CC1` [Ex 37, 1-(5-tert-butyl-isoxazol-3-yl)-3-(3-{7-[2-(4-hydroxymethyl-piperidin-1-yl)-ethoxy]-6-methoxy-quinazolin-4-yloxy}-phenyl)-urea], the IC50 in test [2] is less than 0.25 µM. For the same compound, the Kd at RAF kinases [3] and at RAF kinases [4] was 0.25 to 0.5 µM throughout. The EC50 in the test on A375 cells is 0.25 to 0.5 µM.

`COCCOc1cc2ncnc(Sc3cccc(NC(=O)Nc4cc(C(C)(C)C)on4)c3)c2cc1OCCOC` [Ex 53, 1-{3-[6,7-bis(2-methoxyethoxy)quinazolin-4-ylthio]phenyl}-3-(5-tert-butylisoxazol-3-yl)urea hydrochloride]: the IC50 in test [2] was less than 0.25 µM. Further, the Kd was 0.25 to 0.5 µM at RAF kinases [3] and 0.5 to 1 µM at RAF kinases [4]. For the same compound, the EC50 in the test on A375 cells fell in the range of 0.5 to 1 µM.

On to `COc1cc2c(Oc3cccc(NC(=O)Nc4cc(C(C)(C)C)on4)c3)ncnc2cc1OCCCN1CCC(CO)CC1` [Ex 29], for which the IC50 in test [2] is less than 0.25 µM. For the same compound, the Kd at RAF kinases [3] and on RAF kinases [4] was 0.25 to 0.5 µM throughout. Also, the EC50 in the test on A375 cells was less than 0.25 µM.

As for `COc1cc2c(Sc3cccc(NC(=O)Nc4cc(C(C)(C)C)on4)c3)ncnc2cc1OCCCN1CCCCC1` [Ex 76, 1-(5-tert-butylisoxazol-3-yl)-3-(3-(6-methoxy-7-(3-(piperidin-1-yl)propoxy)quinazolin-4-ylthio)phenyl)urea], in test [2], the IC50 was less than 0.25 µM. The values for the Kd at RAF kinases [3] and on RAF kinases [4] were 0.5 to 1 µM and 0.25 to 0.5 µM, respectively. Also, the EC50 with A375 cells is greater than 1 µM.

In the case of `COc1cc2c(Sc3cccc(NC(=O)Nc4cc(C(C)(C)C)on4)c3)ncnc2cc1OCCN1CCOCC1` [Ex 79, 1-(5-tert-butylisoxazol-3-yl)-3-(3-(6-methoxy-7-(2-morpholinoethoxy)quinazolin-4-ylthio)phenyl)urea], in test [2], the IC50 is less than 0.25 µM. The Kd on RAF kinases [3] and on RAF kinases [4] was 0.5 to 1 µM each time. Also, the EC50 with A375 cells was greater than 1 µM.

On to `COc1cc2ncnc(Oc3cccc(NC(=O)Nc4cc(C(C)(C)C)on4)c3)c2cc1OCCN1CCN(CCO)CC1` [Ex 19, 1-(5-tert-butylisoxazol-3-yl)-3-(3-(6-(2-(4-(2-hydroxyethyl)piperazin-1-yl)ethoxy)-7-methoxyquinazolin-4-yloxy)phenyl)urea], for which the IC50 in test [2] is less than 0.25 µM. Also, the Kd on RAF kinases [3] and at RAF kinases [4] was 0.25 to 0.5 µM throughout. The EC50 in the test on A375 cells is 0.25 to 0.5 µM.

Take `COc1cc2c(Oc3cccc(NC(=O)Nc4cc(C(C)(C)C)on4)c3)ncnc2cc1OCCCN1CC[C@H](O)C1` [Ex 33, (S)-1-(5-tert-butylisoxazol-3-yl)-3-(3-(7-(3-(3-hydroxypyrrolidin-1-yl)propoxy)-6-methoxyquinazolin-4-yloxy)phenyl)urea]: the IC50 in test [2] is less than 0.25 µM. Also, the Kd at RAF kinases [3] and on RAF kinases [4] was 0.25 to 0.5 µM each time. The EC50 in the test on A375 cells was less than 0.25 µM.

As to `COc1cc2ncnc(Oc3cccc(NC(=O)Nc4cc(C(C)(C)C)on4)c3)c2cc1OCCCN1CCCCC1` [Ex 23, 1-(5-tert-butylisoxazol-3-yl)-3-(3-(7-methoxy-6-(3-(piperidin-1-yl)propoxy)quinazolin-4-yloxy)phenyl)urea], the IC50 in test [2] was less than 0.25 µM. Also, the Kd on RAF kinases [3] and at RAF kinases [4] was 0.5 to 1 µM in each case. In the test on A375 cells, the EC50 is 0.5 to 1 µM.

In the case of `COc1cc2ncnc(Sc3cccc(NC(=O)Nc4cc(C(C)(CF)CF)no4)c3)c2cc1OC` [Ex 160, 1-[3-(1,3-difluoro-2-methylpropan-2-yl)isoxazol-5-yl]-3-[3-(6,7-dimethoxyquinazolin-4-ylthio)phenyl]urea], the IC50 in test [2] was less than 0.25 µM. Besides, the dissociation constant Kd fell in the range of 0.25 to 0.5 µM at RAF kinases [3] and 0.5 to 1 µM on RAF kinases [4]. Moreover, the EC50 with A375 cells is greater than 1 µM.

With `COc1cc2ncnc(Oc3cccc(NC(=O)Nc4cc(C(C)(C)C)on4)c3)c2cc1OCCN1CCN(C)CC1` [Ex 18, 1-(5-tert-butylisoxazol-3-yl)-3-(3-(7-methoxy-6-(2-(4-methylpiperazin-1-yl)ethoxy)quinazolin-4-yloxy)phenyl)urea], the concentration for half-maximal inhibition (IC50) in test [2] was less than 0.25 µM. The Kd on RAF kinases [3] lay in the range of 0.5 to 1 µM; at RAF kinases [4] it was 0.25 to 0.5 µM. In addition, the half-maximal effective concentration (EC50) with A375 cells was in the range of 0.25 to 0.5 µM.

As for `COc1cc2c(Sc3cccc(NC(=O)Nc4cc(C(C)(C)C)on4)c3)ncnc2cc1OCCCN1CCN(CCO)CC1` [Ex 75, 1-(5-tert-butylisoxazol-3-yl)-3-(3-(7-(3-(4-(2-hydroxyethyl)piperazin-1-yl)propoxy)-6-methoxyquinazolin-4-ylthio)phenyl)urea], the IC50 in test [2] was less than 0.25 µM. Also, the Kd at RAF kinases [3] and on RAF kinases [4] was 0.25 to 0.5 µM throughout. In addition, the EC50 in the test with A375 cells was greater than 1 µM.
